According to ChEMBL document CHEMBL1201862, “PubChem BioAssay data set” (2004):
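Test compounds were applied to cells in 96-well plates for 48 hours at 5 doses. At the GI50, growth is halved.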 Activity calls are given as the source filed them. Cut-off read from the data, not from the text of the source: active = GI50 up to about 1.1 µM and inactive = higher.

Tests used:
Experiment in all cases: DTP human tumour cell line panel, 48 h
Malme-3M = tested on: Malme-3M
Hs-578T = tested on: Hs-578T
SNB-75 = tested on: SNB-75
ACHN = tested on: ACHN
UACC-257 = tested on: UACC-257
SNB-19 = tested on: SNB-19
HOP-92 = tested on: HOP-92
T47D = tested on: T47D
EKVX = tested on: EKVX
CCRF-CEM = tested on: CCRF-CEM
OVCAR-5 = tested on: OVCAR-5
NCI-H460 = tested on: NCI-H460
NCI-H23 = tested on: NCI-H23
KM12 = tested on: KM12
HOP-62 = tested on: HOP-62
NCI/ADR-RES = tested on: NCI/ADR-RES
SK-MEL-2 = tested on: SK-MEL-2
DU-145 = tested on: DU-145
OVCAR-8 = tested on: OVCAR-8
HCC 2998 = tested on: HCC 2998
PC-3 = tested on: PC-3
M14 = tested on: M14
SF-295 = tested on: SF-295
MDA-MB-435 = tested on: MDA-MB-435
MOLT-4 = tested on: MOLT-4
NCI-H226 = tested on: NCI-H226
TK-10 = tested on: TK-10
A549 = tested on: A549
UACC-62 = tested on: UACC-62
A498 = tested on: A498
MDA-MB-231 = tested on: MDA-MB-231
LOX IMVI = tested on: LOX IMVI
CAKI-1 = tested on: CAKI-1
IGROV-1 = tested on: IGROV-1
SK-MEL-5 = tested on: SK-MEL-5
786-0 = tested on: 786-0
UO-31 = tested on: UO-31
MDA-N = tested on: MDA-N
SW-620 = tested on: SW-620
SK-MEL-28 = tested on: SK-MEL-28
COLO 205 = tested on: COLO 205
SN12C = tested on: SN12C
K562 = tested on: K562
MCF7 = tested on: MCF7
OVCAR-3 = tested on: OVCAR-3
HCT-15 = tested on: HCT-15
BT-549 = tested on: BT-549
SF-539 = tested on: SF-539
OVCAR-4 = tested on: OVCAR-4
SR = tested on: SR
HCT-116 = tested on: HCT-116
HT-29 = tested on: HT-29
U-251 = tested on: U-251
SF-268 = tested on: SF-268
RPMI-8226 = tested on: RPMI-8226
SK-OV-3 = tested on: SK-OV-3
NCI-H522 = tested on: NCI-H522
RXF 393 = tested on: RXF 393
HL-60 = tested on: HL-60

O=C1c2ccccc2C(=O)N1n1c(Cc2ccc(Cl)cc2)n[nH]c1=O
GI50 (Malme-3M): > 100 µM (inactive) | GI50 (Hs-578T): > 100 µM (inactive) | GI50 (SNB-75): > 100 µM (inactive) | GI50 (ACHN): > 100 µM (inactive) | GI50 (UACC-257): > 100 µM (inactive) | GI50 (SNB-19): > 100 µM (inactive) | GI50 (HOP-92): > 100 µM (inactive) | GI50 (T47D): > 100 µM (inactive) | GI50 (EKVX): > 100 µM (inactive) | GI50 (CCRF-CEM): > 100 µM (inactive) | GI50 (OVCAR-5): > 100 µM (inactive) | GI50 (NCI-H460): > 100 µM (inactive) | GI50 (NCI-H23): > 100 µM (inactive) | GI50 (KM12): > 100 µM (inactive) | GI50 (HOP-62): > 100 µM (inactive) | GI50 (NCI/ADR-RES): > 100 µM (inactive) | GI50 (SK-MEL-2): > 100 µM (inactive) | GI50 (DU-145): > 100 µM (inactive) | GI50 (OVCAR-8): > 100 µM (inactive) | GI50 (HCC 2998): > 100 µM (inactive) | GI50 (PC-3): > 100 µM (inactive) | GI50 (M14): > 100 µM (inactive) | GI50 (SF-295): > 100 µM (inactive) | GI50 (MDA-MB-435): > 100 µM (inactive) | GI50 (MOLT-4): > 100 µM (inactive) | GI50 (NCI-H226): > 100 µM (inactive) | GI50 (TK-10): > 100 µM (inactive) | GI50 (A549): > 100 µM (inactive) | GI50 (UACC-62): > 100 µM (inactive) | GI50 (A498): > 100 µM (inactive) | GI50 (MDA-MB-231): > 100 µM (inactive) | GI50 (LOX IMVI): > 100 µM (inactive) | GI50 (CAKI-1): > 100 µM (inactive) | GI50 (IGROV-1): > 100 µM (inactive) | GI50 (SK-MEL-5): > 100 µM (inactive) | GI50 (786-0): > 100 µM (inactive) | GI50 (UO-31): > 100 µM (inactive) | GI50 (MDA-N): > 100 µM (inactive) | GI50 (SW-620): > 100 µM (inactive) | GI50 (SK-MEL-28): > 100 µM (inactive) | GI50 (COLO 205): > 100 µM (inactive) | GI50 (SN12C): > 100 µM (inactive) | GI50 (K562): > 100 µM (inactive) | GI50 (MCF7): > 100 µM (inactive) | GI50 (OVCAR-3): > 100 µM (inactive) | GI50 (HCT-15): > 100 µM | GI50 (BT-549): > 100 µM (inactive) | GI50 (SF-539): > 100 µM (inactive) | GI50 (OVCAR-4): > 100 µM (inactive) | GI50 (SR): > 100 µM (inactive) | GI50 (HCT-116): > 100 µM (inactive) | GI50 (HT-29): > 100 µM (inactive) | GI50 (U-251): > 100 µM (inactive)

COc1cc(OCc2nc3ccccc3n3cccc23)cc(OC)c1OC
GI50 (Malme-3M): 20.6 µM (inactive) | GI50 (Hs-578T): 52.6 µM (inactive) | GI50 (SNB-75): > 93.5 µM (inactive) | GI50 (ACHN): 21.6 µM (inactive) | GI50 (UACC-257): 10.6 µM (inactive) | GI50 (SNB-19): > 51.1 µM (inactive) | GI50 (HOP-92): 10 µM (inactive) | GI50 (T47D): 3.78 µM (inactive) | GI50 (EKVX): 14.8 µM (inactive) | GI50 (CCRF-CEM): 8.49 µM (inactive) | GI50 (OVCAR-5): > 52 µM (inactive) | GI50 (NCI-H460): 20.5 µM (inactive) | GI50 (NCI-H23): 5.6 µM (inactive) | GI50 (SF-268): 41.9 µM (inactive) | GI50 (RPMI-8226): 1.34 µM (inactive) | GI50 (KM12): 15.9 µM (inactive) | GI50 (HOP-62): 37.2 µM (inactive) | GI50 (NCI/ADR-RES): 17.9 µM (inactive) | GI50 (SK-MEL-2): > 100 µM (inactive) | GI50 (DU-145): 55.8 µM (inactive) | GI50 (OVCAR-8): 17.1 µM (inactive) | GI50 (HCC 2998): 43.8 µM (inactive) | GI50 (PC-3): 30.3 µM (inactive) | GI50 (M14): 20.7 µM (inactive) | GI50 (SF-295): 11.3 µM (inactive) | GI50 (MDA-MB-435): 16 µM (inactive) | GI50 (MOLT-4): 2.37 µM (inactive) | GI50 (NCI-H226): 9.73 µM (inactive) | GI50 (TK-10): 32.7 µM (inactive) | GI50 (A549): 20.3 µM (inactive) | GI50 (UACC-62): 13.8 µM (inactive) | GI50 (A498): > 87.5 µM (inactive) | GI50 (MDA-MB-231): 40.6 µM (inactive) | GI50 (LOX IMVI): 22.2 µM (inactive) | GI50 (CAKI-1): 29.7 µM (inactive) | GI50 (SK-OV-3): 40.6 µM (inactive) | GI50 (IGROV-1): 20.3 µM (inactive) | GI50 (SK-MEL-5): 2.42 µM (inactive) | GI50 (786-0): 24.4 µM (inactive) | GI50 (UO-31): 28.1 µM (inactive) | GI50 (MDA-N): 19.4 µM (inactive) | GI50 (NCI-H522): 13.1 µM (inactive) | GI50 (SW-620): 8.34 µM (inactive) | GI50 (SK-MEL-28): 22.1 µM (inactive) | GI50 (COLO 205): 16.8 µM (inactive) | GI50 (SN12C): 47 µM (inactive) | GI50 (K562): 3.86 µM (inactive) | GI50 (MCF7): 3.61 µM (inactive) | GI50 (RXF 393): > 100 µM (inactive) | GI50 (OVCAR-3): 15 µM (inactive) | GI50 (HL-60): 9.35 µM (inactive) | GI50 (HCT-15): 8.09 µM | GI50 (BT-549): 19.7 µM (inactive) | GI50 (SF-539): 24.8 µM (inactive) | GI50 (OVCAR-4): 10.8 µM (inactive) | GI50 (HCT-116): 17.5 µM (inactive) | GI50 (HT-29): 28.1 µM (inactive) | GI50 (U-251): 23.3 µM (inactive)

CC(=O)NC1C(OC(C)C(=O)NC(C)C(=O)NC(CCC(=O)NCCCCCNc2ccc([N+](=O)[O-])c3[nH]c4ccccc4c(=O)c23)C(N)=O)C(O)C(CO)OC1(C)OCc1ccccc1 (configuration not stated)
GI50 (Malme-3M): > 100 µM (inactive) | GI50 (Hs-578T): > 100 µM (inactive) | GI50 (SNB-75): > 100 µM (inactive) | GI50 (ACHN): > 100 µM (inactive) | GI50 (UACC-257): > 100 µM (inactive) | GI50 (SNB-19): > 100 µM (inactive) | GI50 (T47D): > 100 µM (inactive) | GI50 (EKVX): > 100 µM (inactive) | GI50 (CCRF-CEM): > 100 µM (inactive) | GI50 (OVCAR-5): > 100 µM (inactive) | GI50 (NCI-H460): 26.7 µM (inactive) | GI50 (NCI-H23): > 100 µM (inactive) | GI50 (SF-268): > 100 µM (inactive) | GI50 (RPMI-8226): 28.1 µM (inactive) | GI50 (KM12): 79.3 µM (inactive) | GI50 (HOP-62): 89.7 µM (inactive) | GI50 (NCI/ADR-RES): > 100 µM (inactive) | GI50 (SK-MEL-2): > 100 µM (inactive) | GI50 (DU-145): 64.6 µM (inactive) | GI50 (OVCAR-8): 71.6 µM (inactive) | GI50 (HCC 2998): > 100 µM (inactive) | GI50 (PC-3): > 100 µM (inactive) | GI50 (M14): > 100 µM (inactive) | GI50 (SF-295): > 100 µM (inactive) | GI50 (MDA-MB-435): > 100 µM (inactive) | GI50 (MOLT-4): 24.8 µM (inactive) | GI50 (NCI-H226): 89.9 µM (inactive) | GI50 (TK-10): 11.9 µM (inactive) | GI50 (A549): 50.8 µM (inactive) | GI50 (UACC-62): > 100 µM (inactive) | GI50 (A498): > 100 µM (inactive) | GI50 (MDA-MB-231): 46.9 µM (inactive) | GI50 (LOX IMVI): > 100 µM (inactive) | GI50 (CAKI-1): > 100 µM (inactive) | GI50 (SK-OV-3): > 100 µM (inactive) | GI50 (IGROV-1): 64.1 µM (inactive) | GI50 (SK-MEL-5): > 100 µM (inactive) | GI50 (786-0): 38.7 µM (inactive) | GI50 (UO-31): 50.4 µM (inactive) | GI50 (MDA-N): > 100 µM (inactive) | GI50 (NCI-H522): > 100 µM (inactive) | GI50 (SW-620): 67.9 µM (inactive) | GI50 (COLO 205): > 100 µM (inactive) | GI50 (SN12C): > 100 µM (inactive) | GI50 (K562): 45.3 µM (inactive) | GI50 (MCF7): 73.3 µM (inactive) | GI50 (RXF 393): 87.1 µM (inactive) | GI50 (OVCAR-3): > 100 µM (inactive) | GI50 (HCT-15): 73.8 µM | GI50 (BT-549): > 100 µM (inactive) | GI50 (SF-539): 64.1 µM (inactive) | GI50 (OVCAR-4): > 100 µM (inactive) | GI50 (SR): 14 µM (inactive) | GI50 (HCT-116): 23.7 µM (inactive) | GI50 (HT-29): 30.9 µM (inactive) | GI50 (U-251): > 100 µM (inactive)
